How the values were obtained:
[1] = system: CFA-induced thermal hypersensitivity of the rat hind paw; test: CFA-Induced Paw Radiant Heat Hypersensitivity; type: in vivo; settings: 30 mg/kg p.o., HPβCD, group mean values, maximum at any time point up to 180 or 300 min
Experimental: Each rat was placed in a test chamber on a warm glass surface and allowed to acclimate for approximately 10 min. A radiant thermal stimulus (beam of light) was then focused through the glass onto the plantar surface of each hind paw in turn. The thermal stimulus was automatically shut off by a photoelectric relay when the paw was moved or when the cut-off time was reached (20 sec for radiant heat at ˜5 amps). An initial (baseline) response latency to the thermal stimulus was recorded for each animal prior to the injection of complete Freund's adjuvant (CFA). 24 h following intraplantar CFA injection, the response latency of the animal to the thermal stimulus was then re-evaluated and compared to the animal's baseline response time. […] Post-compound treatment withdrawal latencies were assessed at fixed time intervals, typically 30, 60, 120, 180, and 300 min.
The percent reversal (% R) of hypersensitivity was calculated in one of two different ways: 1) using group mean values or 2) using individual animal values. […]
Method 1. For all compounds, the % R of hypersensitivity was calculated using the mean value for groups of animals at each time point according to the following formula: % reversal=[(group treatment response−group CFA response)/(group baseline response−group CFA response)]×100 Results are given for the maximum % reversal observed for each compound at any time point tested. […]

[2] = molecular target: T1, MGL in rat brain homogenate (Rattus norvegicus, UniProt Q8R431); test: 2-AG Accumulation Assay (rat brain homogenate); type: biochemical; settings: compound 1 μM, percent vehicle = 2-AG accumulation with compound / vehicle ×100, read-out: Rat Brain 2AG % VehCntrl (%) @ 1 μM
T1 construct: one g rat brain was homogenized; from tissue; host or cells: rat brain homogenate
T1 sequence (Q8R431 1-303): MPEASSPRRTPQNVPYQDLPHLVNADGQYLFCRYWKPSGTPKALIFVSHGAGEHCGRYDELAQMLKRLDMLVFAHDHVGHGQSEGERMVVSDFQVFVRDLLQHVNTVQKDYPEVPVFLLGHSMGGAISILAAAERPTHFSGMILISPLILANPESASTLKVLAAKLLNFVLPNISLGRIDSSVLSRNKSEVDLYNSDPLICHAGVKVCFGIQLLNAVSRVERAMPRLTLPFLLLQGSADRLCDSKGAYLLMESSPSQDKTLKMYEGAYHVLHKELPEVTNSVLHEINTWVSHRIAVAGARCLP

Structure (SMILES)	Method 1: peak % reversal [1] [%]	activity at 1 µM [2] [%]
O=C(c1ccc(-c2cccc(C(F)(F)F)c2)c(Cl)c1)N1CC(N2CCN(C(=O)c3cscn3)CC2)C1 [Cpd 1102]	38	–
O=C(c1ccc2c(ccn2-c2ncc(C(F)(F)F)cc2Cl)c1)N1CC(N2CCN(C(=O)c3nccs3)CC2)C1 [Cpd 1116]	–	828

Reference: patent US8445477B2, “Azetidinyl diamides as monoacylglycerol lipase inhibitors” (Janssen Pharmaceutica, NV, priority 2009, dated 2013)
